From paper PMC5847527, “Identification of a novel 2-oxindole fluorinated derivative as in vivo antitumor agent for prostate cancer acting via AMPK activation” (Scientific Reports, 2018)

How the values were obtained:
[1] = tested on: Cyclin D1; assay: Cyclin D1 level by Western blot in PC-3 and LNCaP cells; format: cell-based, human
Protocol: Figure 4 Cell Cycle analysis in 8c-treated prostate cancer cells. (A) PC-3 and LNCaP cells were treated with compound 8c for 24 hours and cell cycle analysis was analyzed by flow cytometry using Propidium Iodide (PI). Percentage of cells in subG0, G1, S, and G2/M phases is indicated in the histogram. (B) Levels of Cyclin D1, p-p53, p53, p21 and cleaved Caspase 3 (17 kDa fragment) were determined by Western blot. Upper panel, representative Western blot of two different experiments. β-tubulin (β-Tub) serves as a loading control. Lower panel, the densitometric analyses of bands represented as the mean ± SD of the two different experiments. *p < 0.05 and **p < 0.01 compared with the control group by the Student’s t-test.
There are many intracellular mechanisms whereby AMPK activation inhibits cell growth. […] To further investigate the mechanism underpinning the cell viability inhibitory effect of compound 8c, levels of Cyclin D1 were determined by Western blot in PC-3 and LNCaP cells.
Cells were lysed in Lysis buffer (50 mM Tris pH 7.4, 0.8 M NaCl, 5 mM MgCl2, 0.1% Triton X-100) containing Protease Inhibitor and Phosphatase inhibitor Cocktails (Roche, Basel, Switzerland). Protein concentrations were measured by BioRad™ protein assay kit (Richmond, CA, USA). […] Films were analyzed by densitometry. […]

[2] = tested on: AMPK; assay: Characterization of AMPK activation by Western blot in PC-3 and LNCaP cells (Dorsomorphin, siRNA); format: cell-based, human
Protocol: To further confirm the compound 8c-induced activation of AMPK, PC-3 and LNCaP cells were incubated with the compound for 1 h and 24 hours in the presence of the AMPK inhibitor Dorsomorphin. […] Accordingly, ACC phosphorylation was increased at 1 h and 24 h and prevented by Dorsomorphin in both cell lines. AMPK inhibits mTORC1 through phosphorylation of Raptor on two well-conserved serine residues (ser722 and ser792) inducing cell-cycle arrest in response to an energy stress. To further support the 8c-induced AMPK activation, we determined Raptor phosphorylation on Ser792 in prostate cells.
Figure 5 AMPK activation by compound 8c in prostate cancer cells. (A) PC-3 and LNCaP cells were treated with vehicle, 25 µM compound 8c, 25 µM compound 8c + 5 μM Dorsomorphin (8c + D) or 5 μM Dorsomorphin (D), for 1 hour or 24 hours and levels of the phosphorylated AMPK (pAMPK), phosphorylated ACC (pACC), phosphorylated Raptor (pRaptor) forms and HIF1α were determined by Western blot. Upper panel, representative Western blot of three different experiments. β-tubulin (β-Tub) serves as a loading control. Lower panel, densitometric analyses of bands represented as the mean of the ratio pAMPK/AMPK or pACC/ACC. (B) Cell viability monitored by MTT assay in PC-3 and LNCaP cells treated with vehicle, 25 µM and 50 μM compound 8c alone or in the presence of 5 μM Dorsomorphin or transfected with control siRNA (siC) or α1AMPK-selective siRNA (siAMPK). (C) LNCaP cells were treated with vehicle, 25 µM compound 8c, 25 µM compound 8c + 5 μM Dorsomorphin (8c + D) or 5 μM Dorsomorphin (D), for 24 hours and levels of Androgen Receptor (AR), Prostate specific antigen (PSA) and Prostate specific membrane antigen (PSMA) were determined by Western blot.Values were normalized with the control and represent the mean ± SD of at least three independent experiments. *p < 0.05 and **p < 0.01 compared to control and ^#p < 0.05 and ^##p < 0.01 compared with 8c-treated group by the Student’s t-test.
AMPK is a heterotrimeric protein composed by catalytic (α) and regulatory (β and γ) subunits. In mammals, different isoforms of α, β and γ subunits can associate to produce up to 12 AMPK different combinations. […]
Figure 6 Phosphorylation of AMPK and ACC in prostate cells transfected with selective AMPKα1 or AMPKα2 siRNA. […] Levels of the phosphorylated AMPK (pAMPK), phosphorylated ACC (pACC) and their total forms were determined by Western blot. […]
Cells were lysed in Lysis buffer (50 mM Tris pH 7.4, 0.8 M NaCl, 5 mM MgCl2, 0.1% Triton X-100) containing Protease Inhibitor and Phosphatase inhibitor Cocktails (Roche, Basel, Switzerland). Protein concentrations were measured by BioRad™ protein assay kit (Richmond, CA, USA). […]

## O=C1Nc2ccccc2C1(F)Cc1ccc(-c2ccccc2)o1 (stereo not shown) [Compound 8c, 3-fluoro-3-((5-phenylfuran-2-yl)methyl)indolin-2-one]
[1]
  Cyclin D1 level: marked decrease in Cyclin D1 level
[2]; PC-3 and LNCaP cells, 25 µM, 24 hours vs 1 hour
  activation of AMPK at 24 hours: also seen at 24 hours, being even more robust that at 1 hour of treatment
[2]; siRNA AMPKα1, 25 μM, 1 h
  8c-induced AMPK phosphorylation with AMPKα1 subunit knocked down: almost totally blocked
[2]; siRNA AMPKα2, 25 μM, 1 h
  AMPK and ACC phosphorylation with AMPKα2 subunit silenced: still was able to phosphorylate AMPK and ACC at a similar level than in non-silenced (siC) cells
